According to patent US20230085307A1, “PYRIDAZINONE COMPOUND AND HERBICIDE” (NISSAN CHEMICAL CORPORATION, priority 2019, published 2023):

Key:
lambsquarters [1] = assay: Test Example 4: herbicidal effect by soil treatment (Table 19, symbol O); format: in vivo, lambsquarters (Chenopodium album); conditions: amount of applied herbicide 320 g/ha
How it was run: (§1)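 Soil-surface application: an emulsion agent diluted with water to the predetermined dose is sprayed uniformly over seeds lying under roughly 1.5 cm of sterilized diluvial soil. Boxes stay in a greenhouse at 25° C. to 30° C. Three weeks later, each species is graded on previously defined criteria.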

Italian ryegrass [2] = assay: Test Example 5: herbicidal effect by foliage application, plastic box (Table 20, symbol K); format: in vivo, Italian ryegrass (Lolium multiflorum); conditions: foliage application
How it was run: (§2)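 Sow seeds spot-wise in sterilized diluvial soil; cover with ~1.5 cm soil. Grow 14 days in greenhouse, 25° C. to 30° C. Spray foliage with emulsion diluted to predetermined amount. Rate effect after 3 weeks.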

blackgrass [3] = assay: Test Example 5: herbicidal effect by foliage application, plastic box (Table 20, symbol J); format: in vivo, blackgrass (Alopecurus myosuroides); conditions: foliage application
How it was run: as §2

windgrass [4] = assay: Test Example 4: herbicidal effect by soil treatment (Table 19, symbol L); format: in vivo, windgrass (Apera spica-venti); conditions: amount of applied herbicide 320 g/ha
How it was run: as §1

southern crabgrass [5] = assay: Test Example 4: herbicidal effect by soil treatment (Table 19, symbol F); format: in vivo, southern crabgrass (Digitaria ciliaris); conditions: amount of applied herbicide 320 g/ha
How it was run: as §1

chickweed = assay: Test Example 5: herbicidal effect by foliage application, plastic box (Table 20, symbol P); format: in vivo, common chickweed (Stellaria media); conditions: foliage application
How it was run: as §2

southern crabgrass [6] = assay: Test Example 5: herbicidal effect by foliage application, plastic box (Table 20, symbol F); format: in vivo, southern crabgrass (Digitaria ciliaris); conditions: foliage application
How it was run: as §2

oval-leafed pondweed = assay: Test Example 1: herbicidal activity, application before weed generation under submerged conditions (Table 16, symbol C); format: in vivo, oval-leafed pondweed (Monochoria vaginalis)
How it was run: (§3)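 Emulsion formulation, water-diluted to set dose, was put onto the flooded surface (4 cm depth, alluvial soil) the same day weeds were sown and 2.5-leaf rice transplanted. After 3 weeks at 25-30 °C under glass, each species was rated 0 (≤5% kill) to 5 (≥90% kill).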

blackgrass [7] = assay: Test Example 4: herbicidal effect by soil treatment (Table 19, symbol J); format: in vivo, blackgrass (Alopecurus myosuroides); conditions: amount of applied herbicide 320 g/ha
How it was run: as §1

redroot pigweed [8] = assay: Test Example 5: herbicidal effect by foliage application, plastic box (Table 20, symbol N); format: in vivo, redroot pigweed (Amaranthus retroflexus); conditions: foliage application
How it was run: as §2

windgrass [9] = assay: Test Example 5: herbicidal effect by foliage application, plastic box (Table 20, symbol L); format: in vivo, windgrass (Apera spica-venti); conditions: foliage application
How it was run: as §2

persian speedwell [10] = assay: Test Example 5: herbicidal effect by foliage application, plastic box (Table 20, symbol R); format: in vivo, Persian speedwell (Veronica persica); conditions: foliage application
How it was run: as §2

barnyard grass [11] = assay: Test Example 5: herbicidal effect by foliage application, plastic box (Table 20, symbol H); format: in vivo, barnyard grass (Echinochloa crus-galli); conditions: foliage application
How it was run: as §2

green foxtail [12] = assay: Test Example 5: herbicidal effect by foliage application, plastic box (Table 20, symbol G); format: in vivo, green foxtail (Setaria viridis); conditions: foliage application
How it was run: as §2

false cleavers = assay: Test Example 4: herbicidal effect by soil treatment (Table 19, symbol Q); format: in vivo, false cleavers (Galium spurium); conditions: amount of applied herbicide 320 g/ha
How it was run: as §1

persian speedwell [13] = assay: Test Example 4: herbicidal effect by soil treatment (Table 19, symbol R); format: in vivo, Persian speedwell (Veronica persica); conditions: amount of applied herbicide 320 g/ha
How it was run: as §1

barnyard grass [14] = assay: Test Example 4: herbicidal effect by soil treatment (Table 19, symbol H); format: in vivo, barnyard grass (Echinochloa crus-galli); conditions: amount of applied herbicide 320 g/ha
How it was run: as §1

barnyard grass [15] = assay: Test Example 3: herbicidal effect by foliage application, Wagner pot (Table 18, symbol H); format: in vivo, barnyard grass (Echinochloa crus-galli); conditions: amount of applied herbicide 320 g/ha
How it was run: (§4)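 Plants were sown in alluvial soil held under 0.1–0.5 cm standing water and grown 14 days in a greenhouse at 25–30 °C. An emulsifiable formulation, water-diluted to the set dose, was then sprayed onto the foliage, and effects were scored three weeks later using previously defined criteria.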

velvetleaf [16] = assay: Test Example 5: herbicidal effect by foliage application, plastic box (Table 20, symbol M); format: in vivo, velvetleaf (Abutilon theophrasti); conditions: foliage application
How it was run: as §2

lambsquarters [17] = assay: Test Example 5: herbicidal effect by foliage application, plastic box (Table 20, symbol O); format: in vivo, lambsquarters (Chenopodium album); conditions: foliage application
How it was run: as §2

Japanese bulrush = assay: Test Example 1: herbicidal activity, application before weed generation under submerged conditions (Table 16, symbol B); format: in vivo, Japanese bulrush (Schoenoplectus juncoides)
How it was run: as §3

wild oat [18] = assay: Test Example 5: herbicidal effect by foliage application, plastic box (Table 20, symbol I); format: in vivo, wild oat (Avena fatua); conditions: foliage application
How it was run: as §2

green foxtail [19] = assay: Test Example 4: herbicidal effect by soil treatment (Table 19, symbol G); format: in vivo, green foxtail (Setaria viridis); conditions: amount of applied herbicide 320 g/ha
How it was run: as §1

wild oat [20] = assay: Test Example 4: herbicidal effect by soil treatment (Table 19, symbol I); format: in vivo, wild oat (Avena fatua); conditions: amount of applied herbicide 320 g/ha
How it was run: as §1

Chinese sprangletop = assay: Test Example 3: herbicidal effect by foliage application, Wagner pot (Table 18, symbol D); format: in vivo, chinese sprangletop (Leptochloa chinensis); conditions: amount of applied herbicide 320 g/ha
How it was run: as §4

velvetleaf [21] = assay: Test Example 4: herbicidal effect by soil treatment (Table 19, symbol M); format: in vivo, velvetleaf (Abutilon theophrasti); conditions: amount of applied herbicide 320 g/ha
How it was run: as §1

Italian ryegrass [22] = assay: Test Example 4: herbicidal effect by soil treatment (Table 19, symbol K); format: in vivo, Italian ryegrass (Lolium multiflorum); conditions: amount of applied herbicide 320 g/ha
How it was run: as §1

late watergrass = assay: Test Example 1: herbicidal activity, application before weed generation under submerged conditions (Table 16, symbol A); format: in vivo, late watergrass (Echinochloa oryzicola)
How it was run: as §3

redroot pigweed [23] = assay: Test Example 4: herbicidal effect by soil treatment (Table 19, symbol N); format: in vivo, redroot pigweed (Amaranthus retroflexus); conditions: amount of applied herbicide 320 g/ha
How it was run: as §1

rice flat sedge = assay: Test Example 3: herbicidal effect by foliage application, Wagner pot (Table 18, symbol E); format: in vivo, rice flat sedge (Cyperus iria); conditions: amount of applied herbicide 320 g/ha
How it was run: as §4

[24] = AAH 320 g/ha, evaluated three weeks after application
[25] = 320 g/ha, three weeks after application
[26] = amount of applied herbicide 320 g/ha

Cc1nn(C)c(=O)c(-c2c(-c3cccc(OCc4ccccc4)c3)sc3ccc(F)cc23)c1O [2-267]
herbicidal effect on O: lambsquarters (lambsquarters [1]): 0 (Herbicidal rate of 5% or less (almost no effect))
K: Italian ryegrass, herbicidal effect (criteria 0-5) (Italian ryegrass [2]; [24]): 3 (Herbicidal rate of 40% or more and less than 70%)
J: blackgrass, herbicidal effect (criteria 0-5) (blackgrass [3]; [24]): 2 (Herbicidal rate of 20% or more and less than 40%)
herbicidal effect on L: windgrass (windgrass [4]): 0 (Herbicidal rate of 5% or less (almost no effect))
herbicidal effect on F: southern crabgrass (southern crabgrass [5]): 5 (Herbicidal rate of 90% or more (almost completely withered))
P: chickweed, herbicidal effect (criteria 0-5) (chickweed; [24]): 5 (Herbicidal rate of 90% or more (almost completely withered))
F: southern crabgrass, herbicidal effect (criteria 0-5) (southern crabgrass [6]; [24]): 4 (Herbicidal rate of 70% or more and less than 90%)
Herbicidal effect on C: oval-leafed pondweed (grade 0-5) (oval-leafed pondweed; 320 g/ha applied herbicide): 0 (Herbicidal rate of 5% or less (almost no effect))
herbicidal effect on J: blackgrass (blackgrass [7]): 0 (Herbicidal rate of 5% or less (almost no effect))
N: redroot pigweed, herbicidal effect (criteria 0-5) (redroot pigweed [8]; [24]): 4 (Herbicidal rate of 70% or more and less than 90%)
L: windgrass, herbicidal effect (criteria 0-5) (windgrass [9]; [24]): 0 (Herbicidal rate of 5% or less (almost no effect))
R: persian speedwell, herbicidal effect (criteria 0-5) (persian speedwell [10]; [24]): 5 (Herbicidal rate of 90% or more (almost completely withered))
H: barnyard grass, herbicidal effect (criteria 0-5) (barnyard grass [11]; [24]): 5 (Herbicidal rate of 90% or more (almost completely withered))
G: green foxtail, herbicidal effect (criteria 0-5) (green foxtail [12]; [24]): 5 (Herbicidal rate of 90% or more (almost completely withered))
herbicidal effect on Q: false cleavers (false cleavers): 0 (Herbicidal rate of 5% or less (almost no effect))
herbicidal effect on R: persian speedwell (persian speedwell [13]): 4 (Herbicidal rate of 70% or more and less than 90%)
herbicidal effect on H: barnyard grass (barnyard grass [14]): 5 (Herbicidal rate of 90% or more (almost completely withered))
herbicidal effect on H: barnyard grass (barnyard grass [15]): 5 (Herbicidal rate of 90% or more (almost completely withered))
M: velvetleaf, herbicidal effect (criteria 0-5) (velvetleaf [16]; [24]): 3 (Herbicidal rate of 40% or more and less than 70%)
O: lambsquarters, herbicidal effect (criteria 0-5) (lambsquarters [17]; [24]): 4 (Herbicidal rate of 70% or more and less than 90%)
Herbicidal effect on B: Japanese bulrush (grade 0-5) (Japanese bulrush; 320 g/ha applied herbicide): 0 (Herbicidal rate of 5% or less (almost no effect))
I: wild oat, herbicidal effect (criteria 0-5) (wild oat [18]; [24]): 0 (Herbicidal rate of 5% or less (almost no effect))
herbicidal effect on G: green foxtail (green foxtail [19]): 3 (Herbicidal rate of 40% or more and less than 70%)
herbicidal effect on I: wild oat (wild oat [20]): 0 (Herbicidal rate of 5% or less (almost no effect))
herbicidal effect on D: Chinese sprangletop (Chinese sprangletop): 5 (Herbicidal rate of 90% or more (almost completely withered))
herbicidal effect on M: velvetleaf (velvetleaf [21]): 0 (Herbicidal rate of 5% or less (almost no effect))
herbicidal effect on K: Italian ryegrass (Italian ryegrass [22]): 0 (Herbicidal rate of 5% or less (almost no effect))
Herbicidal effect on A: late watergrass (grade 0-5) (late watergrass; 320 g/ha applied herbicide): 2 (Herbicidal rate of 20% or more and less than 40%)
herbicidal effect on N: redroot pigweed (redroot pigweed [23]): 2 (Herbicidal rate of 20% or more and less than 40%)
herbicidal effect on E: rice flat sedge (rice flat sedge): 3 (Herbicidal rate of 40% or more and less than 70%)

Cc1nn(CC#N)c(=O)c(-c2c(-c3ccc(F)cc3)sc3ccc(F)cc23)c1O [2-430]
herbicidal effect, O: lambsquarters (lambsquarters [1]): 1 (Herbicidal rate of 5% or more and less than 20%)
K: Italian ryegrass, herbicidal effect grade (Italian ryegrass [2]; [25]): 3 (Herbicidal rate of 40% or more and less than 70%)
J: blackgrass, herbicidal effect grade (blackgrass [3]; [25]): 0 (Herbicidal rate of 5% or less (almost no effect))
herbicidal effect, L: windgrass (windgrass [4]): 0 (Herbicidal rate of 5% or less (almost no effect))
herbicidal effect, F: southern crabgrass (southern crabgrass [5]): 0 (Herbicidal rate of 5% or less (almost no effect))
P: chickweed, herbicidal effect grade (chickweed; [25]): 5 (Herbicidal rate of 90% or more (almost completely withered))
F: southern crabgrass, herbicidal effect grade (southern crabgrass [6]; [25]): 0 (Herbicidal rate of 5% or less (almost no effect))
Herbicidal effect, C: oval-leafed pondweed (oval-leafed pondweed; [26]): 0 (Herbicidal rate of 5% or less (almost no effect))
herbicidal effect, J: blackgrass (blackgrass [7]): 0 (Herbicidal rate of 5% or less (almost no effect))
N: redroot pigweed, herbicidal effect grade (redroot pigweed [8]; [25]): 3 (Herbicidal rate of 40% or more and less than 70%)
L: windgrass, herbicidal effect grade (windgrass [9]; [25]): 0 (Herbicidal rate of 5% or less (almost no effect))
R: persian speedwell, herbicidal effect grade (persian speedwell [10]; [25]): 4 (Herbicidal rate of 70% or more and less than 90%)
H: barnyard grass, herbicidal effect grade (barnyard grass [11]; [25]): 1 (Herbicidal rate of 5% or more and less than 20%)
G: green foxtail, herbicidal effect grade (green foxtail [12]; [25]): 2 (Herbicidal rate of 20% or more and less than 40%)
herbicidal effect, Q: false cleavers (false cleavers): 0 (Herbicidal rate of 5% or less (almost no effect))
herbicidal effect, R: persian speedwell (persian speedwell [13]): 0 (Herbicidal rate of 5% or less (almost no effect))
herbicidal effect, H: barnyard grass (barnyard grass [14]): 0 (Herbicidal rate of 5% or less (almost no effect))
herbicidal effect on H: barnyard grass (barnyard grass [15]): 2 (Herbicidal rate of 20% or more and less than 40%)
M: velvetleaf, herbicidal effect grade (velvetleaf [16]; [25]): 2 (Herbicidal rate of 20% or more and less than 40%)
O: lambsquarters, herbicidal effect grade (lambsquarters [17]; [25]): 3 (Herbicidal rate of 40% or more and less than 70%)
Herbicidal effect, B: Japanese bulrush (Japanese bulrush; [26]): 0 (Herbicidal rate of 5% or less (almost no effect))
I: wild oat, herbicidal effect grade (wild oat [18]; [25]): 0 (Herbicidal rate of 5% or less (almost no effect))
herbicidal effect, G: green foxtail (green foxtail [19]): 0 (Herbicidal rate of 5% or less (almost no effect))
herbicidal effect, I: wild oat (wild oat [20]): 0 (Herbicidal rate of 5% or less (almost no effect))
herbicidal effect on D: Chinese sprangletop (Chinese sprangletop): 0 (Herbicidal rate of 5% or less (almost no effect))
herbicidal effect, M: velvetleaf (velvetleaf [21]): 2 (Herbicidal rate of 20% or more and less than 40%)
herbicidal effect, K: Italian ryegrass (Italian ryegrass [22]): 0 (Herbicidal rate of 5% or less (almost no effect))
Herbicidal effect, A: late watergrass (late watergrass; [26]): 3 (Herbicidal rate of 40% or more and less than 70%)
herbicidal effect, N: redroot pigweed (redroot pigweed [23]): 5 (Herbicidal rate of 90% or more (almost completely withered))
herbicidal effect on E: rice flat sedge (rice flat sedge): 3 (Herbicidal rate of 40% or more and less than 70%)
